What was measured:
[1] = tested on: ASD patients; details: clinical setting; heterogeneous responses reported; cited from earlier work
[2] = tested on: patients with idiopathic ASD; test: Observational clinical pilot study: earlier oral bumetanide treatment of ASD patients; assay type: in vivo, human; details: three patients with idiopathic ASD; oral solution 0.5, 1.0 or 2 mg twice daily for three months
Procedure: The main goal of this pilot study was to validate the clinical benefit of bumetanide in patients showing clinical signs and symptoms characterizing ASD phenotype 3. First, a custom semi-structured online clinical questionnaire (Questionnaire […] 2021) comprising a total of 38 medical examination questions and 73 medical history questions was administered by a clinician during a remote screening visit (over the phone) that took up to 90 min. This remote screening visit included reviewing detailed medical history and clinical signs and symptoms related to ASD phenotype 3 with the patient/caregiver for a clinical validation. […]

[3] = tested on: human cell lines (A549, ASC, HA1E, HT29, MCF7, PC3, VCAP); test: Differential gene expression (QuantSeq RNA sequencing) after bumetanide treatment of cell lines; assay type: cell-based; details: 10 uM, 6 or 24 hours, across cell lines
Procedure: To characterize the cell line invariant mechanism of action, bumetanide was tested across different human cell lines including several cancer cell lines (such as A549, MCF7, PC3, HT29 and VAP) as well as cells from healthy tissues (such as ASC and HA1E). These cell lines (Table 3) were chosen due to their ease of manipulation and suitability for systematic screening. […] Incubation of cell types was performed inside an incubator with a humified atmosphere of 95% and 5% of CO2, and a constant temperature of 37° C. Cells were treated with bumetanide using a dilution of 10 uM for all replicates at a time duration of 6 or 24 hours. [table] Following drug treatment, RNA extracted from each treated cell line was sequenced with QuantSeq with 4-6 million coverage reads per sample in triplicates.

SMILES	Effect on behaviour in ASD patients [1]	Clinical response of ASD patients to treatment [2]	DEG ranking after treatment, GNAS ([3]; gene GNAS)	Direction of differential expression, GNAS ([3]; gene GNAS)	DEG ranking after treatment, KCNJ6 ([3]; gene KCNJ6)	DEG ranking after treatment, KCNJ10 ([3]; gene KCNJ10)	DEG ranking after treatment, KCNK3 ([3]; gene KCNK3)	DEG ranking after treatment, KCNQ3 ([3]; gene KCNQ3)	DEG ranking after treatment, KCNV1 ([3]; gene KCNV1)	DEG ranking after treatment, SLC12A5 (KCC2) ([3]; gene SLC12A5 (KCC2))	DEG ranking after treatment, SNAP25 ([3]; gene SNAP25)
C[S+]([O-])CCCCN=C=S (centres unmarked) [sulforaphane]	improve behaviour in some ASD patients										
CCCCNc1cc(C(=O)O)cc(S(N)(=O)=O)c1Oc1ccccc1 [bumetanide, 3-(butylamino)-4-phenoxy-5-sulfamoylbenzoic acid]		shown improvement	1	DOWN	19	113	49	48	165	35	1

— patent US20230134747A1, “COMPOSITIONS FOR THE TREATMENT OF AUTISM SPECTRUM DISORDER” (STALICLA SA, priority 2020, published 2023)
